Experiment in all cases: Z'-LYTE kinase panel
Assay type in all cases: biochemical

The target of assay [1] is T1, AKT1 (PKB alpha) (Homo sapiens, UniProt P31749).
T1 construct: purchased ThermoFisher (SelectScreen, Z'-LYTE)
A digest of the protocol:
(§1)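 Each compound was added at 10 µM, kinase activity was then measured via the standard Z′-LYTE assay, and percentage inhibition was calculated; 225 kinases were covered.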

Assay [2] concerns the target T2, CSNK1E (CK1 epsilon) (Homo sapiens, UniProt P49674).
T2 construct: purchased ThermoFisher (SelectScreen, Z'-LYTE)
A digest of the protocol:
as §1

The target in assay [3] is T3, DYRK1A (Homo sapiens, UniProt Q13627).
T3 construct: purchased ThermoFisher (SelectScreen, Z'-LYTE)
The gist of the method:
as §1

The target in assay [4] is T4, ZAP70 (Homo sapiens, UniProt P43403).
T4 construct: purchased ThermoFisher (SelectScreen, Z'-LYTE)
T4 sequence (P43403 1-619): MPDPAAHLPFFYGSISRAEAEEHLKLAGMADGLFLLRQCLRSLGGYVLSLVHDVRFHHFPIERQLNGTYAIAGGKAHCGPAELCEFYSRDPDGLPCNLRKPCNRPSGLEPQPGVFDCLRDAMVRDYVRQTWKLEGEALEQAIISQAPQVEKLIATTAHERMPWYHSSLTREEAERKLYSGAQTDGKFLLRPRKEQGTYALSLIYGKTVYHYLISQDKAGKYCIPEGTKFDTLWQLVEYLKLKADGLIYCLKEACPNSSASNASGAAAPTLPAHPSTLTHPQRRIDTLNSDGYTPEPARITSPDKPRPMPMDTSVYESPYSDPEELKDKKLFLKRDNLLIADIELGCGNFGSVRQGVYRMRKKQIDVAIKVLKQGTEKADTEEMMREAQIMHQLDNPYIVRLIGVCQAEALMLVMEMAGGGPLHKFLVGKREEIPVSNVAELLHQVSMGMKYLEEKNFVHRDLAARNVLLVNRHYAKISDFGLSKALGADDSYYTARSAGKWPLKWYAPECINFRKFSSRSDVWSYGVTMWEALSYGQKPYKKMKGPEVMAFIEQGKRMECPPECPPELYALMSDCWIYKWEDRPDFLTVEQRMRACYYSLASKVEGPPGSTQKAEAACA
A digest of the protocol: as §1

The target in assay [5] is T5, IGF1R (Homo sapiens, UniProt P08069).
T5 construct: purchased ThermoFisher (SelectScreen, Z'-LYTE)
T5 sequence (P08069 31-1367): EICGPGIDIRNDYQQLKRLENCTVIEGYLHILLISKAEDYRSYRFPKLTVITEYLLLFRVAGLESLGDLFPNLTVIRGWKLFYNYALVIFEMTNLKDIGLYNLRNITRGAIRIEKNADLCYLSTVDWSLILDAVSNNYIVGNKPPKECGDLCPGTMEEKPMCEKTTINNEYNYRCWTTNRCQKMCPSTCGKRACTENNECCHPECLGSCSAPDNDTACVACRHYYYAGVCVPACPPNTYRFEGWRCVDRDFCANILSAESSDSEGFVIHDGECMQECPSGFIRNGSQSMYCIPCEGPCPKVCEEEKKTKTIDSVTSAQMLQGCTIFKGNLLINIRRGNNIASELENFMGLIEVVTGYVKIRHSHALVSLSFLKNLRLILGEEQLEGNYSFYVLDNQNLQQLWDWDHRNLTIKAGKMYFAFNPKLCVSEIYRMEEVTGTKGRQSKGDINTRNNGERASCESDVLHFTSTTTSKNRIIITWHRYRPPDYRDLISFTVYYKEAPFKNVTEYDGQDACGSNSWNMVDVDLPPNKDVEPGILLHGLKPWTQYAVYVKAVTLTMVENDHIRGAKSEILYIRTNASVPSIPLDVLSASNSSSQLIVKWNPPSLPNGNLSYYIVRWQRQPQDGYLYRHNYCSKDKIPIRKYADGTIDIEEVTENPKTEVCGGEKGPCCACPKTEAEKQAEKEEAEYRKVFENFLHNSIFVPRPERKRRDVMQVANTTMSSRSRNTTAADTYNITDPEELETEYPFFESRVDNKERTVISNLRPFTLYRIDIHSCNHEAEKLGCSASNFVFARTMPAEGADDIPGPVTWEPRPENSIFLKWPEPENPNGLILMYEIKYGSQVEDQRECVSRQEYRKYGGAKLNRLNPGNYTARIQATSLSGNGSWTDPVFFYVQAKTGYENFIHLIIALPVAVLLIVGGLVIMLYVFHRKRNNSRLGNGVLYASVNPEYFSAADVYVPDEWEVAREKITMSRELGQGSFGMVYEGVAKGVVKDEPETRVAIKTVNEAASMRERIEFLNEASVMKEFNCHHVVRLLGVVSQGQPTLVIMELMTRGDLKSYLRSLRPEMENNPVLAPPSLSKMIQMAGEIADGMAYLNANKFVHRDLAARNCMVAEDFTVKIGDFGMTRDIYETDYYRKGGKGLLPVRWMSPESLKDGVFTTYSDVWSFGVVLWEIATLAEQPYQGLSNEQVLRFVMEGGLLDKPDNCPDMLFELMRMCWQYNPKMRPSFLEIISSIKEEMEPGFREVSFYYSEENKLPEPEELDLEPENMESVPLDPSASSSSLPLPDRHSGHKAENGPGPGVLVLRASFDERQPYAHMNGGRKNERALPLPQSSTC
A digest of the protocol: as §1

Assay [6] deals with T6, PHKG1 (Homo sapiens, UniProt Q16816).
T6 construct: purchased ThermoFisher (SelectScreen, Z'-LYTE)
T6 sequence (Q16816 whole entry): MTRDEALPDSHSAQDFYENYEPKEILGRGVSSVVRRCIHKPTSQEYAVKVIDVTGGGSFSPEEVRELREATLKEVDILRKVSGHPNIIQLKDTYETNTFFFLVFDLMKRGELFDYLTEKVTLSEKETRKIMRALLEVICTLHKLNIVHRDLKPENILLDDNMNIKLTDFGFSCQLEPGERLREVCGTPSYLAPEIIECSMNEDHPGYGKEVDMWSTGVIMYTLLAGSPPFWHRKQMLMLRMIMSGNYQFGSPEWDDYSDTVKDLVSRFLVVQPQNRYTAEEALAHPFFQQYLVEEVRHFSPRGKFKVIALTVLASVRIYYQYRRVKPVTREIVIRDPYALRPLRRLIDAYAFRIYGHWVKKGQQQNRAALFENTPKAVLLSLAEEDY
A digest of the protocol: as §1

Assay [7] concerns the target T7, PRKCZ (PKC zeta) (Homo sapiens, UniProt Q05513).
T7 construct: purchased ThermoFisher (SelectScreen, Z'-LYTE)
T7 sequence (Q05513 1-592): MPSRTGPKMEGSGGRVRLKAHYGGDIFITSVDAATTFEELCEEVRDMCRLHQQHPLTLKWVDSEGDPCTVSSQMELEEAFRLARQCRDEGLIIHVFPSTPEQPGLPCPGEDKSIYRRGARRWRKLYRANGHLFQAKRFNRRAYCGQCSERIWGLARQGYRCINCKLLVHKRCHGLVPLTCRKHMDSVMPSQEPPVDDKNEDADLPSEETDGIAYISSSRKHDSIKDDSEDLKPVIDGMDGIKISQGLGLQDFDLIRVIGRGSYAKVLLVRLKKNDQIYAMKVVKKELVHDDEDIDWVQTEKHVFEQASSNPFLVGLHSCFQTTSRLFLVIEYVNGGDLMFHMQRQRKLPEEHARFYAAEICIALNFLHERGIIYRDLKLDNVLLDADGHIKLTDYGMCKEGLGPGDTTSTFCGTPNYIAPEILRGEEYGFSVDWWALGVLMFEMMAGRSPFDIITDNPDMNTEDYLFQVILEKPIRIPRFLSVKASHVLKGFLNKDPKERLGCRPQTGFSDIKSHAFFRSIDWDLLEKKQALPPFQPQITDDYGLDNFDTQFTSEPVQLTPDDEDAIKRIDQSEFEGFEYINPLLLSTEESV
The gist of the method:
as §1

Assay [8] has as its target T8, EPHB2 (Homo sapiens, UniProt P29323).
T8 construct: purchased ThermoFisher (SelectScreen, Z'-LYTE)
T8 sequence (P29323 19-1055): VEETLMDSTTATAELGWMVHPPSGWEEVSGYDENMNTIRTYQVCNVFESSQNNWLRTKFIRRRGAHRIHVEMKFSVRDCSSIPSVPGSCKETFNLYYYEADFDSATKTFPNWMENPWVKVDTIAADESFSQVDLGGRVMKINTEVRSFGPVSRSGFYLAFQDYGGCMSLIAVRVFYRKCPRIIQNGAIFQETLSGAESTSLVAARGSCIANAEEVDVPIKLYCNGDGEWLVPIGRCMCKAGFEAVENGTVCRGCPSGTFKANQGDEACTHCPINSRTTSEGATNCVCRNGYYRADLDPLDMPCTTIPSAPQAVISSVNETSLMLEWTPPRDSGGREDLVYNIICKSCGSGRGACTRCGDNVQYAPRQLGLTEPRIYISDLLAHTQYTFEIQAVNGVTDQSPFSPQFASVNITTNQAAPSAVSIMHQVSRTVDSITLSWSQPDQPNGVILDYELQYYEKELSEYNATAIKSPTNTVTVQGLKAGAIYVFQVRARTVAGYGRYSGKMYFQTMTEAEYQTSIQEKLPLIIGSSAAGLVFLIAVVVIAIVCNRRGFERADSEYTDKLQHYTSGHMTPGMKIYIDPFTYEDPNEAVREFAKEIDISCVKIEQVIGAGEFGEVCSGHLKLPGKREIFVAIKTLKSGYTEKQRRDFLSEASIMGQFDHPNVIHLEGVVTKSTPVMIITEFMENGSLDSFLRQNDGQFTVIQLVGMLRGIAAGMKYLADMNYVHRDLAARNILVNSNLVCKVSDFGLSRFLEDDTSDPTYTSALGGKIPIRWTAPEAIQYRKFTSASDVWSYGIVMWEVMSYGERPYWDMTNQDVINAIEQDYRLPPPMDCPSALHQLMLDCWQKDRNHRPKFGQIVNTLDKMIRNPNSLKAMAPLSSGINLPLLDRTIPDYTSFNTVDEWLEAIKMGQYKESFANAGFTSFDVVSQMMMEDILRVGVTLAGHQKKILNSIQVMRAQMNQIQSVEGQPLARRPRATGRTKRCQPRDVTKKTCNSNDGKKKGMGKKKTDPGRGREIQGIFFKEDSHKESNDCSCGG
A digest of the protocol: as §1

For assay [9], the target named is T9, TYK2 (Homo sapiens, UniProt P29597).
T9 construct: purchased ThermoFisher (SelectScreen, Z'-LYTE)
T9 sequence (P29597 whole entry): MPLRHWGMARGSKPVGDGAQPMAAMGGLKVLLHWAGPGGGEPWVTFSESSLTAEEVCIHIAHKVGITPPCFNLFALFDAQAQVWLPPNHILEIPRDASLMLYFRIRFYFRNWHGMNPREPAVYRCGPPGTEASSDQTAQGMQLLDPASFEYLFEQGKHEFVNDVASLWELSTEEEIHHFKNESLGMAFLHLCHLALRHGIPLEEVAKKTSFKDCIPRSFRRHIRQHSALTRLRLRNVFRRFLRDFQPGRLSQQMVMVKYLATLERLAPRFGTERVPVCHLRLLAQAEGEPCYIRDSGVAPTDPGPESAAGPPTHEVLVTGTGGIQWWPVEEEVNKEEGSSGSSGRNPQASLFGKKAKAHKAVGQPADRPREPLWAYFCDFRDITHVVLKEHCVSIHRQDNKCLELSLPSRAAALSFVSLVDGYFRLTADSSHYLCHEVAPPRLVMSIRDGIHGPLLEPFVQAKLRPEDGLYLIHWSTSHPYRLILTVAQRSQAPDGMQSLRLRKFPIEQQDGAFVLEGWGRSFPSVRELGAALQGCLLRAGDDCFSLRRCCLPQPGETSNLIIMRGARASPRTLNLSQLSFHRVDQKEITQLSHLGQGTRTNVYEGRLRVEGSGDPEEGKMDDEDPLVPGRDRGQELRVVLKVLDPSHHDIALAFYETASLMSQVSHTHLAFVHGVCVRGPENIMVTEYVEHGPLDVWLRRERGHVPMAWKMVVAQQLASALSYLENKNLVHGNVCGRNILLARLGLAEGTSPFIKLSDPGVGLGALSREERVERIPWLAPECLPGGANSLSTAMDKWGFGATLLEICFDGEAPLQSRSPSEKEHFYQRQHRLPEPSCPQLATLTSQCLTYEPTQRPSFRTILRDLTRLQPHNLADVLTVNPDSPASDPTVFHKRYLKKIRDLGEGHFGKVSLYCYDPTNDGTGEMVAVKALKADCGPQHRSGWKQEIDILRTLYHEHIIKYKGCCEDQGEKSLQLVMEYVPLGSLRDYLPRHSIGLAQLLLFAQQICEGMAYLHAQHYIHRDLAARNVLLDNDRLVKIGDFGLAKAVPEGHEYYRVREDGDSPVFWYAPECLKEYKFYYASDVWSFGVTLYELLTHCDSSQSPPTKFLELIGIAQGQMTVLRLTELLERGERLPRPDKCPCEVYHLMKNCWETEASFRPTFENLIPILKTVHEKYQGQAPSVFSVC
The following applies: 10 µM compound, ATP Km app. A digest of the protocol: as §1

Assay [10] addresses T10, GSK3A (GSK3 alpha) (Homo sapiens, UniProt P49840).
T10 construct: purchased ThermoFisher (SelectScreen, Z'-LYTE)
The following applies: 10 µM compound, ATP Km app. A digest of the protocol: as §1

Assay [11] concerns the target T11, MAPK9 (JNK2) (Homo sapiens, UniProt P45984).
T11 construct: purchased ThermoFisher (SelectScreen, Z'-LYTE)
The following applies: 10 µM compound; ATP 100. A digest of the protocol: as §1

The target in assay [12] is T12, CDK2/cyclin A (Homo sapiens, UniProt P24941).
T12 construct: purchased ThermoFisher (SelectScreen, Z'-LYTE)
The gist of the method: as §1

A value given as a limit tells only on which side of the number the result lay.

T1 sequence (P31749 whole entry): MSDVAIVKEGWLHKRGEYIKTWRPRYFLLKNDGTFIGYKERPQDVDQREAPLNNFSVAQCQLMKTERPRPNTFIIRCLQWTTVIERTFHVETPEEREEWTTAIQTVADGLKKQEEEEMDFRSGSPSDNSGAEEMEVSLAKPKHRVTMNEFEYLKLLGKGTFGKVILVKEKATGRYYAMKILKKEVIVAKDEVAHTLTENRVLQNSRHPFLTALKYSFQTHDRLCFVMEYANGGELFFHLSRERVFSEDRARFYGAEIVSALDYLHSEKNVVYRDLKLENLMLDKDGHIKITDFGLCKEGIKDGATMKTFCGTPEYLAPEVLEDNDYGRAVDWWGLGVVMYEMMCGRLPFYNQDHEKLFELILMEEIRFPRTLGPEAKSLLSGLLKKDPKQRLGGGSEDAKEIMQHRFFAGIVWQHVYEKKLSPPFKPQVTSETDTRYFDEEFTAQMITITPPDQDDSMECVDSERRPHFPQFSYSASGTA
T2 sequence (P49674 whole entry): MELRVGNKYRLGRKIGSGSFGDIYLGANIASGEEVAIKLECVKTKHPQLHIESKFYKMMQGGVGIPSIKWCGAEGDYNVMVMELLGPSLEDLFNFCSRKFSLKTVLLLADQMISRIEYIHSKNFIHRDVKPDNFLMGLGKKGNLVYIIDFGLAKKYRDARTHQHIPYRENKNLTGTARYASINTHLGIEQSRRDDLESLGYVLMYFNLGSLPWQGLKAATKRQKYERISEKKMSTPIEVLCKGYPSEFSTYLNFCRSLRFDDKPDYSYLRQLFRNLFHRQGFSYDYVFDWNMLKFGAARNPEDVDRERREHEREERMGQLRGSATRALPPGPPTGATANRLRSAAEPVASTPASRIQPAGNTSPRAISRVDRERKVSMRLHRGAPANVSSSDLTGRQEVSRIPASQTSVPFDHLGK
T10 sequence (P49840 whole entry): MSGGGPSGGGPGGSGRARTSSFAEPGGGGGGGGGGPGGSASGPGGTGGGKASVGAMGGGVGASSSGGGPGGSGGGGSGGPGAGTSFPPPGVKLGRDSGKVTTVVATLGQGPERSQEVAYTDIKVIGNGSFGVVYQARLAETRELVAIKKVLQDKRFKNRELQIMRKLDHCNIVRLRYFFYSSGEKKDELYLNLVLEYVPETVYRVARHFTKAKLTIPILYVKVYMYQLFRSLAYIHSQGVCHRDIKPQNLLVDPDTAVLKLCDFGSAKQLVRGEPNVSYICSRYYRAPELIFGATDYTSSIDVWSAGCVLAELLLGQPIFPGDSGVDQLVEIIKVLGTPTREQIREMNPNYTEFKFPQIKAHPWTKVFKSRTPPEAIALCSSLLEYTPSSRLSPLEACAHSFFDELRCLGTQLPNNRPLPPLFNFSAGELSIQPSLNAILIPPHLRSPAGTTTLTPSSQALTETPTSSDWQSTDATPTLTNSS

As a reminder, the inhibition is the change of the read-out against control, counted positive when it falls. For the molecule `Cc1ncc(-c2nc(Nc3ccc(C(=O)NCCN4CCCCC4)cc3)ncc2F)n1C(C)C` [Compound 3], the inhibition at 10 µM was found to be 19% in [1]; 81% in assay [2]; 93% in assay [3]; 19% in assay [4]; 67% in [5]; 100% in assay [6]. In addition, the inhibition at 10 µM in assay [7] was determined as 18%; in [8] it was 97%; in [9], 101%; in assay [10], 98%; in assay [11], 103%; in assay [12], 101%.
On to `Cc1cc(Nc2nc(N)nn2C(=O)NC(C)C)ccc1Cl` [Compound 5], for which the inhibition at 10 µM in assay [1] was 0.31%; in assay [2], 2.61%; in [3], 1.48%; in [4] it was 12%; in assay [5] it was -0.717%; in assay [6] it was -5.38%. In addition, the inhibition at 10 µM in [7] is 4%; in assay [8] it was 7%; in assay [9] it was > 80%; in [10], > 80%; in assay [11], 4.72%; in assay [12], 56%. In assay [9] (listed as SN1109056190, 10 µM), the “TYK2 % Inhibition” value turned out to be 94%. Further, in assay [10] (listed as SN1109056190, 10 µM), the “GSK3A (GSK3 alpha) % Inhibition” value is reported as 82%.
For the molecule “XMD8-92 [Compound 2, reference compound]”, the “AKT1 (PKB alpha) % Inhibition” value in assay [1] (10 µM compound, ATP Km app) is 41%. For the same molecule, in [2] (10 µM compound, ATP Km app), the “CSNK1E (CK1 epsilon) % Inhibition” value came to 4%. Moreover, the “DYRK1A % Inhibition” value in assay [3] (10 µM compound, ATP Km app) was 2%. For the same molecule, the “ZAP70 % Inhibition” value in assay [4] (10 µM compound, ATP Km app) was found to be 12%. Moreover, the “IGF1R % Inhibition” value in assay [5] (10 µM compound, ATP Km app) is -1.87%. The “PHKG1 % Inhibition” value in assay [6] (10 µM compound, ATP Km app) was found to be 12%. In [7] (10 µM compound, ATP Km app), the “PRKCZ (PKC zeta) % Inhibition” value was -2.33%. For the same molecule, in [8] (10 µM compound, ATP Km app), the “EPHB2 % Inhibition” value amounted to 18%. The “TYK2 % Inhibition” value in [9] was found to be 36%. The “GSK3A (GSK3 alpha) % Inhibition” value in [10] was determined as 35%. Besides, the “MAPK9 (JNK2) % Inhibition” value in [11] is 5.42%. Besides, the “CDK2/cyclin A % Inhibition” value in assay [12] (10 µM compound, ATP Km app) is 20%.

The values are drawn from article PMC4854315, “Discovery of a novel allosteric inhibitor-binding site in ERK5: comparison with the canonical kinase hinge ATP-binding site” (Acta Crystallographica. Section D, Structural Biology, 2016).
